{
  "source": "patent EP0002051A1",
  "about": "“Use of butoxybenzylhyoscyamine bromide in pharmaceutical compositions against deafness and tinnitus” (Eisai Co., Ltd., priority 1977, dated 1979)",
  "key": {"[1]": {"tested_on": "male and female rats", "assay": "chronic toxicity, continuous administration for 25 weeks", "assay_type": "in vivo", "procedure": "Toxicity of butoxybenzylhyoscyamine bromide in detail: • (A) The acute toxicity, LDSo(mg/kg), is as shown in table 1 [formula] • (B) The compound was administered in an amount of 3.2, 8.0 or 2o mg/kg per day to male and female rats conti- nously during 25 weeks to determine the chronic toxicity."}, "[2]": {"tested_on": "hearing power", "assay": "clinical test: audiometry just after intravenous injection (30 minutes)", "assay_type": "in vivo", "details": "5o patients", "procedure": "(§1) Among patients who came into the hospital during the period of from September 1976 to September 1977 while complaining of deafness or tinnitus, those meeting the following conditions were chosen.\n(§2) Butoxybenzylhyoscyamine bromide was administered to 74 patients meeting the above conditions.\n(§3) In principle, a mixture of 4 mg of butoxybenzylhyoscyamine bromide with 2o % glucose was intravenously injected at first, and then, two capsules, each containing 5 mg of butoxybenzylhyoscyamine bromide, was administered 3-times per day (namely, 6 capsules being administered as a whole per day). The administration of capsules was conducted for one week.\n(§4) • (a) The standard autiometry (125 - 8ooo Hz, air and bone condition) was carried out before the injection. • (b) The same test was conducted 3o minutes after the injection. In patients complaining of tinnitus, the change of the degree of tinnitus was examined. • (c) The audiometry was carried out on the 7th day from the start of the oral administration. If the patients felt changes of hearing power or tinnitus during this period, the audiometry was appropriately conducted. • (d) During the oral administraion period of 7 days, desease conditions such as (1) hearing power (2) tinnitus, (3) other ear symptoms and (4) side effects were recorded in examination cards.\n(§5) • 1. Change of hearing power just after injection (3o minutes: • With respect to 5o patients, the audiometry was carried out just after the intravenous injection of butoxybenzylhyoscyamine bromide (3o minutes after the injection) to obtain results shown in table 2. Sounds of 25o Hz, 1000 Hz and 8000 Hz were chosen as typical instances of sounds of the low-tone, medium-tone and high-tone regions, respectively, and changes of the hearing power to these sounds were examined. The change within a range of + 5 dB was judged as \"no change\" and the change exceeding 5 dB was judged as \"improvement\" or \"worsening\". [formula] As will be apparent from the results shown in table 2, the highest improvement was 2o dB (1ooo Hz) but in many cases, the improvement was up to 15 dB. The improvement was higher in the order of the low-tone region (18%), the high-tone region (12 %) and the mediom-tone region (8%) and the average improvement of the hearing power after the intravenous injection was about 13 %. • 2. Improvement of Tinnitus: With respect to 41 patients complaining of tinnitus, the change of degree of tinnitus was examined after one week's oral administration to obtain results shown belof in table 3. [formula] As will be apparent from the results shown in table 3, the agent was effective in 15 patients (36%), though the agent of the present invention was ineffective in 24 patients (59%) or the agent worsened the state in 2 patients (5%). • 3. Change of hearing power after administration: Changes of the hearing power were examined during a period of 1 year and three months at longest after one week's administration. With respect to cases where high improving effects were attained, the clinical history will be described."}, "[3]": {"tested_on": "tinnitus", "assay": "clinical test: change of degree of tinnitus after one week's oral administration", "assay_type": "in vivo", "details": "41 patients complaining of tinnitus", "procedure": "as §1, §2, §3, §4, §5"}, "[4]": {"tested_on": "hearing power", "assay": "clinical test: change of hearing power after administration (case histories, audiograms)", "assay_type": "in vivo, patients", "procedure": "as §1, §3, §4, §5"}, "[5]": {"details": "rats, 3.2, 8.0 or 2o mg/kg per day"}},
  "data": [
    {"smiles": "CCCCOc1ccc(C[N+]2(C)C3CCC2CC(OC(=O)C(CO)c2ccccc2)C3)cc1", "note": "(stereo not shown) [butoxybenzylhyoscyamine bromide, N-(p-n-butoxybenzyl)-hyoscyaminium bromide]", "values": [
      {"measurement": "change in organs (chronic toxicity)", "setting": "[1]; [5]", "result": "no substantial change was observed in any organ"},
      {"measurement": "tests of blood and urine (chronic toxicity)", "setting": "[1]; [5]", "result": "particular changes or disorders were not observed at all"},
      {"measurement": "changes observed (chronic toxicity)", "setting": "[1]; rats, daily administered amount 2o mg/kg", "result": "inactive motion, mydriasis, control of increase of the body weight, storage of a small quantity of abdominal dropsy and formation of false membranes on the liver and spleen"},
      {"measurement": "improvement of hearing power in many cases", "setting": "[2]; 3o minutes after intravenous injection of 4 mg", "result": "up to 15 dB"},
      {"measurement": "highest improvement of hearing power", "setting": "[2]; 3o minutes after intravenous injection of 4 mg, 1ooo Hz", "result": 2, "unit": "o"},
      {"measurement": "improvement, low-tone region", "setting": "[2]; 3o minutes after intravenous injection, 25o Hz, change exceeding 5 dB judged as improvement", "result": 18, "unit": "%"},
      {"measurement": "improvement, medium-tone region", "setting": "[2]; 3o minutes after intravenous injection, 1000 Hz, change exceeding 5 dB judged as improvement", "result": 8, "unit": "%"},
      {"measurement": "improvement, high-tone region", "setting": "[2]; 3o minutes after intravenous injection, 8000 Hz, change exceeding 5 dB judged as improvement", "result": 12, "unit": "%"},
      {"measurement": "average improvement of the hearing power after the intravenous injection", "setting": "[2]; average of low-, medium- and high-tone regions", "result": "about 13%"},
      {"measurement": "tinnitus: effective, number of patients", "setting": "[3]", "result": 15, "unit": "patients"},
      {"measurement": "tinnitus: effective, share of patients", "setting": "[3]", "result": 36, "unit": "%"},
      {"measurement": "tinnitus: ineffective, number of patients", "setting": "[3]", "result": 24, "unit": "patients"},
      {"measurement": "tinnitus: ineffective, share of patients", "setting": "[3]", "result": 59, "unit": "%"},
      {"measurement": "tinnitus: state worsened, number of patients", "setting": "[3]", "result": 2, "unit": "patients"},
      {"measurement": "tinnitus: state worsened, share of patients", "setting": "[3]", "result": 5, "unit": "%"},
      {"measurement": "tinnitus, Case 2", "setting": "[4]; person with the improvement of the hearing power", "result": "Tinnitus disappeared"},
      {"measurement": "hearing loss, Case 6", "setting": "[4]; person, 3o minutes after intravenous injection", "result": "the hearing loss was extremely reduced"},
      {"measurement": "hearing power after second 1 week oral administration, Case 4", "setting": "[4]; person, at termination of the second oral administration", "result": "further improved in the low-tone region"},
      {"measurement": "hearing power restored on the average, Case 4", "setting": "[4]; person, fixed perceptive deafness, one intravenous injection then 1 week oral, after 3 weeks", "result": "about 1o"},
      {"measurement": "hearing power restored at maximum, Case 4", "setting": "[4]; person, fixed perceptive deafness, one intravenous injection then 1 week oral, after 3 weeks, 2 KHz", "result": 2, "unit": "o"},
      {"measurement": "change of hearing power, Case 3", "setting": "[4]; person, fixed sudden deafness of right ear, repeated intravenous injection", "result": "remarkably improved in the low-tone region"},
      {"measurement": "hearing loss after about 1 month, Case 2", "setting": "[4]; person, left ear, hearing loss about 5o dB before, one week oral administration with S.G.B.", "result": 1, "unit": "o"},
      {"measurement": "hearing power after one week's administration, Case 2", "setting": "[4]; person, left ear, hearing loss about 5o dB before, oral administration while conducting S.G.B.", "result": "returned to the level equal to the level at the first examination"},
      {"measurement": "change of hearing power, Case 5", "setting": "[4]; person, perceptive deafness of left ear, oral, 3 weeks, 6 capsules per day", "result": "gradually recovered but was not returned to the normal level"},
      {"measurement": "change of hearing power, Case 1", "setting": "[4]; person, perceptive deafness, six capsules of 5 mg per day", "result": "the improvement was observed in the low-tone region after the administration"}
    ]}
  ]
}
